Laboratory results as given in patent publication US20100267054A1, “Measuring The Activity Of Proteases” (priority 2007, published 2010).
Values belong to the molecule of their own block, whether it stands above or below them.

Columns and labels:
[1] = tested on: protease activity of human serum; experiment: Effect of E64 and CA-074 on the protease activities of human sera with and without treatment by immobilised papain (AFC method); format: biochemical; details: two normal human sera; for protease activity of sera after pre-treatment with immobilised papain, effect of inhibitor: pre-treated with immobilised papain; for small proteolytic activity of sera without pre-treatment, effect of inhibitor: without pre-treatment with immobilised papain
Experimental: FIG. 7 Effect of the inhibitors E64 and CA074 on the activity of purified cathepsin B or the protease activities of sera with and without treatment by immobilised papain. The tests were carried out with the AFC method.
(§1) The measurement of the fluorescence was done with 96-well microtiter plates by means of a fluorescence reader (for measurements with AMC: excitation at 355 nm, fluorescence at 450 nm) (for measurements with AFC: excitation at 400 nm, fluorescence at 508 nm).
(§2) In the AFC-method the assay run for the measurement of the activity was carried out in test samples at 37° C. The content of the test sample was transferred into the microtiter plate just before the measurement of the fluorescence.
The enzymatic activities of cathepsin B in small concentrations were measured of two “normal” human sera with and without pre-treatment with immobilised papain (FIG. 7).

cathepsin B = biological target: T1, cathepsin B (Bos taurus, UniProt P07688); experiment: Inhibition of cathepsin B by cystatin A; format: biochemical, bovine; details: 700 nM cystatin A; 5 and 10 ng cathepsin B per assay run
T1 construct: cathepsin B (purified from the bovine spleen, 10 units/ml) was used in the test; from tissue; host or cells: bovine spleen
Text: a1. Introduction: The activity measurement of cathepsin B is based on the cleavage of a dipeptide substrate • Z-Arg-Arg-fluorophore→Z-Arg-Arg+fluorophore (Z=protecting group, Arg=basic amino acid arginine)
as §1, §2
The inhibition of cathepsin B by the known inhibitor cystatin A was tested in vitro with two different cathepsin B concentrations.

Molecule: CCCNC(=O)[C@H]1O[C@@H]1C(=O)N[C@H](C(=O)N1CCC[C@H]1C(=O)O)[C@@H](C)CC [CA-074]
protease activity of sera after pre-treatment with immobilised papain, effect of inhibitor [1]: reduced this activity to the value which was measured in the samples not pre-treated | small proteolytic activity of sera without pre-treatment, effect of inhibitor [1]: inhibited neither

Molecule: CC(C)C[C@H](NC(=O)[C@H]1O[C@@H]1C(=O)O)C(=O)NCCCCN=C(N)N [E64]
protease activity of sera after pre-treatment with immobilised papain, effect of inhibitor [1]: reduced this activity to the value which was measured in the samples not pre-treated | small proteolytic activity of sera without pre-treatment, effect of inhibitor [1]: inhibited neither

inhibition of cathepsin B (cathepsin B): > 95%
B1: cystatin A: known protein inhibitor of cathepsin B (protein, UniProt P01040 1-98, looked up)
Cystatin-A: MIPGGLSEAKPATPEIQEIVDKVKPQLEEKTNETYGKLEAVQYKTQVVAGTNYYIKVRAGDNKYMHLKVFKSLPGQNEDLVLTGYQVDKNKDDELTGF
